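Five compound concentrations were applied to cells in 96-well plates for 48 hours; endpoints were derived by simple linear interpolation of the resulting dose-response curve. Here, GI50 denotes the concentration required for 50% inhibition of growth. TGI marks complete inhibition of growth.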
How the values were obtained:
Test in all cases: growth of human tumour cells (NCI), 48 h
SNB-19 CNS = system: SNB-19 CNS
EKVX NSCLC = system: EKVX NSCLC
LXFL 529 NSCLC = system: LXFL 529 NSCLC
SK-MEL-5 melanoma = system: SK-MEL-5 melanoma
SNB-75 CNS = system: SNB-75 CNS
SF-539 CNS = system: SF-539 CNS
SNB-78 CNS = system: SNB-78 CNS
RPMI-8226 leukemia = system: RPMI-8226 leukemia
NCI-H23 lung = system: NCI-H23 lung
DU-145 prostate = system: DU-145 prostate

| SMILES | TGI (SNB-19 CNS) [µM] | TGI (EKVX NSCLC) [µM] | TGI (LXFL 529 NSCLC) [µM] | TGI (SK-MEL-5 melanoma) [µM] | TGI (SNB-75 CNS) [µM] | TGI (SF-539 CNS) [µM] | TGI (SNB-78 CNS) [µM] | TGI (RPMI-8226 leukemia) [µM] | TGI (NCI-H23 lung) [µM] | GI50 (SNB-19 CNS) [µM] | GI50 (EKVX NSCLC) [µM] | GI50 (SK-MEL-5 melanoma) [µM] | GI50 (DU-145 prostate) [µM] | TGI (DU-145 prostate) [µM] | GI50 (SNB-75 CNS) [µM] | GI50 (SF-539 CNS) [µM] | GI50 (RPMI-8226 leukemia) [µM] | GI50 (NCI-H23 lung) [µM] |
| --- | --- | --- | --- | --- | --- | --- | --- | --- | --- | --- | --- | --- | --- | --- | --- | --- | --- | --- |
| CCc1cccc(NC(=O)c2cc(/C=C/c3ccccc3)[nH]c(=S)n2)c1 | > 100 | > 100 | > 100 | > 100 | > 100 | > 100 | > 100 | > 100 | > 100 | – | – | – | – | – | – | – | – | – |
| CC[P+]1(c2ccccc2)CCCCC1 | > 100 | > 100 | > 100 | > 100 | > 100 | > 100 | > 100 | > 100 | > 100 | – | – | – | – | – | – | – | – | – |
| CC(C)(C)OC1=C(OC(C)(C)C)C(O)(c2ccc(Cl)cc2)C1=O (stereo unspecified) | > 100 | > 100 | > 100 | > 100 | > 100 | > 100 | > 100 | > 100 | > 100 | – | – | – | – | – | – | – | – | – |
| C=C1C(=O)O[C@H]2[C@H]1CC/C(COC(=O)/C=C\C(=O)NCc1ccc(Cn3c(=O)sn(-c4ccc(Cl)cc4)c3=O)cc1)=C\CC[C@@]1(C)O[C@@H]21 | 1.67 | 1.58 | – | 1.52 | 1.31 | 1.43 | – | 2.05 | 1.88 | 0.831 | 0.809 | 0.825 | 0.638 | 1.3 | 0.623 | 0.748 | 0.27 | 0.884 |
| C=CCN1C(=O)[C@]2(SC1=S)[C@H](c1cccc(Cl)c1)CN(C)[C@]21C(=O)NC2C=CC(Cl)=C[C@H]21 (stereo partly specified) | 16.8 | 24.6 | – | 18.2 | 18.2 | 25.6 | – | 4.97 | 22 | 4.83 | 4.54 | 5.28 | 4.16 | 14.6 | 2.37 | 10.3 | 1.64 | 6.12 |
| CC(=O)/C=C/c1ccc(N(CCO)Cc2ccc(C(C)(C)C)cc2)cc1 | 241 | 162 | – | 146 | 200 | 212 | – | 72.5 | 235 | 116 | 31 | 39.9 | 73.2 | 206 | 54.7 | 84.3 | 28.2 | 63.7 |
| COc1cc(NCCC2CCCCN2)c2ncccc2c1OC (stereo unspecified) | 42.3 | 48.6 | – | 14.9 | 19.5 | 28.5 | – | 50.8 | 31.3 | 18.7 | 15.6 | 4.28 | 13.1 | 26.9 | 3.85 | 14.1 | 10.1 | 7.09 |
| CCC(=C(c1ccc(OCCN2CCCC2)cc1)c1ccc(OCCN2CCCC2)cc1)c1ccc(Cl)cc1 | 1.19 | 1.4 | – | 1.07 | 2.61 | 1.05 | – | 1.53 | 1.38 | 0.624 | 0.666 | 0.6 | 0.617 | 1.14 | 0.921 | 0.558 | 0.674 | 0.667 |
| CC(=O)O[C@H]1CC[C@]2(C)C3C(=O)C[C@]4(C)[C@@H](C(C)CCC(=O)O)CC[C@@]4(C)[C@@H]3CC[C@H]2C1(C)C (stereo partly specified) | > 50 | 36.8 | – | 17.5 | > 50 | 35.2 | – | > 50 | > 50 | 21 | 10.2 | 8.53 | 19.7 | > 50 | 42.7 | 12.8 | 9.79 | 19.1 |
| O=C(O)c1cc(Cl)cc(Cc2cc(Cl)cc(C(=O)O)c2O)c1O | > 100 | > 100 | – | > 100 | > 100 | > 100 | – | > 100 | > 100 | – | – | – | – | > 100 | – | – | – | – |
| COc1ccc2nc3ccccc3c(NCc3ccccc3)c2c1 | 13.7 | 11.4 | – | 3.17 | 10 | 3.96 | – | 4.49 | 5.52 | 3.41 | 3.03 | 1.76 | 3.18 | 10.3 | 2.48 | 1.94 | 1.93 | 1.95 |
| Oc1cc(O)c2c(c1)OC(c1ccc(O)c(O)c1)C(O)C2c1c(O)cc(O)c2c1OC(c1ccc(O)c(O)c1)C(O)C2 (stereo unspecified) | > 100 | > 100 | – | > 100 | > 100 | > 100 | – | > 100 | > 100 | – | – | – | – | > 100 | – | – | – | – |
| OCC1OC(n2cnc3c(NCc4ccco4)ncnc32)C(O)C1O (stereo unspecified) | > 100 | 81.7 | – | > 74.1 | > 28.1 | 13.6 | – | 21.3 | 31.8 | 3.99 | 4.73 | 9.36 | 1.27 | 4.14 | 1.73 | 3.07 | 3 | 2.87 |
| CCN(CC)CCCNc1cc(OC)c(OC)c2cccnc12 | 45 | 54.8 | – | 19.9 | 14.8 | 23 | – | 40.7 | 26.1 | 13.1 | 16.4 | 5.67 | 15.9 | 33.4 | 3.05 | 8.01 | 11.2 | 1.85 |
| CCOC(=O)c1cc2c(n1Cc1cc(OC)cc(OC)c1)-c1oncc1CC2 | > 100 | > 100 | – | 20.3 | > 100 | 4.58 | – | > 35.4 | > 100 | 0.544 | 0.32 | 0.0827 | 0.216 | 25.7 | 0.111 | 0.243 | 0.354 | 0.307 |
| NS(=O)(=O)c1cc(C(=O)O)c(Cl)c([N+](=O)[O-])c1Cl | > 100 | > 100 | – | > 100 | > 100 | > 100 | – | > 100 | > 100 | – | – | – | – | > 100 | – | – | – | – |
